Results as given in the NIST ThermoML archive (doi:10.1021/je800463k).
Numbers after ± are expanded uncertainties.

Test: mn = molality of the nth substance listed, in mol/kg
Conditions: 101 kPa, Liquid; for electrical conductivity / speed of sound / viscosity: 313.15 K; for electrical conductivity: Frequency=0.001 MHz, Alternating current cell with electrodes; for speed of sound: Frequency=2 MHz; for mass density: Pycnometric method

Molecule `CC(=O)[O-].CC(=O)[O-].[Mg+2]` [magnesium acetate] + CO has an electrical conductivity (m1 = 0.018) of 0.0685 ± 0.0001 S/m, an electrical conductivity (m1 = 0.0339) of 0.089 ± 0.0001 S/m and an electrical conductivity (m1 = 0.053) of 0.1041 ± 0.0001 S/m. For the same molecule, the electrical conductivity (m1 = 0.0646) was 0.1137 ± 0.0001 S/m, the electrical conductivity (m1 = 0.0855) was 0.1243 ± 0.0001 S/m and the electrical conductivity (m1 = 0.1024) was 0.1348 ± 0.0001 S/m. It also gave an electrical conductivity (m1 = 0.1402) of 0.1535 ± 0.0001 S/m, an electrical conductivity (m1 = 0.1455) of 0.1577 ± 0.0001 S/m and an electrical conductivity (m1 = 0.1837) of 0.166 ± 0.0001 S/m. The electrical conductivity (m1 = 0.2422) was 0.1817 ± 0.0001 S/m, the electrical conductivity (m1 = 0.2889) was 0.1868 ± 0.0001 S/m and the speed of sound (m1 = 0.0059) was 1053.9 ± 6.2 m/s. For the same molecule, the speed of sound (m1 = 0.0093) was 1054.5 ± 6.2 m/s, the speed of sound (m1 = 0.018) was 1055.7 ± 6.3 m/s and the speed of sound (m1 = 0.053) was 1059.6 ± 6.3 m/s. For the same molecule, the speed of sound (m1 = 0.0855) was 1059 ± 6.3 m/s, the speed of sound (m1 = 0.1024) was 1061 ± 6.3 m/s and the speed of sound (m1 = 0.1402) was 1062.7 ± 6.3 m/s. For the same molecule, the speed of sound (m1 = 0.1455) was 1059.1 ± 6.3 m/s, the speed of sound (m1 = 0.1837) was 1061.4 ± 6.3 m/s and the speed of sound (m1 = 0.2192) was 1064.3 ± 6.3 m/s. The speed of sound (m1 = 0.2422) was 1064.9 ± 6.3 m/s, the speed of sound (m1 = 0.2889) was 1066.1 ± 6.3 m/s and the speed of sound (m1 = 0.3042) was 1067.2 ± 6.3 m/s. The viscosity (m1 = 0.014) was 0.4545 ± 0.013 mPa·s, the viscosity (m1 = 0.018) was 0.4559 ± 0.013 mPa·s and the viscosity (m1 = 0.0339) was 0.4632 ± 0.013 mPa·s. The viscosity (m1 = 0.0646) was 0.4698 ± 0.013 mPa·s, the viscosity (m1 = 0.1012) was 0.4881 ± 0.014 mPa·s and the viscosity (m1 = 0.13) was 0.4956 ± 0.014 mPa·s. For the same molecule, the viscosity (m1 = 0.1402) was 0.5 ± 0.014 mPa·s, the viscosity (m1 = 0.17) was 0.5145 ± 0.014 mPa·s and the viscosity (m1 = 0.2003) was 0.5239 ± 0.015 mPa·s. The viscosity (m1 = 0.2422) was 0.5375 ± 0.015 mPa·s, the viscosity (m1 = 0.2453) was 0.5373 ± 0.015 mPa·s and the viscosity (m1 = 0.2889) was 0.5513 ± 0.015 mPa·s. The mass density (313.55 K, m1 = 0.3042) was 792.2 ± 5.5 kg/m3, the mass density (313.65 K, m1 = 0.1112) was 782 ± 3.1 kg/m3 and the mass density (313.95 K, m1 = 0.1455) was 784.03 ± 4.1 kg/m3. It also gave a mass density (313.95 K, m1 = 0.1798) of 786.45 ± 3.6 kg/m3, a mass density (314.05 K, m1 = 0.0059) of 772.92 ± 0.83 kg/m3 and a mass density (314.55 K, m1 = 0.1402) of 782.97 ± 4.2 kg/m3. It also gave a mass density (314.6 K, m1 = 0.0646) of 777.82 ± 2 kg/m3, a mass density (314.7 K, m1 = 0.0093) of 772.8 ± 0.91 kg/m3 and a mass density (314.8 K, m1 = 0.2003) of 786.04 ± 4.5 kg/m3. For the same molecule, the mass density (314.8 K, m1 = 0.2422) was 788.41 ± 5 kg/m3, the mass density (314.8 K, m1 = 0.2668) was 789.38 ± 4.3 kg/m3 and the mass density (315.1 K, m1 = 0.0339) was 775.12 ± 1.1 kg/m3. It also gave a mass density (315.2 K, m1 = 0.014) of 773.47 ± 1 kg/m3, a mass density (315.4 K, m1 = 0.053) of 775.16 ± 1.2 kg/m3 and a mass density (315.45 K, m1 = 0.0855) of 777.19 ± 2.3 kg/m3. The mass density (316.05 K, m1 = 0.3042) was 789.78 ± 5.4 kg/m3, the mass density (316.35 K, m1 = 0.0059) was 770.56 ± 0.83 kg/m3 and the mass density (316.35 K, m1 = 0.1798) was 784.05 ± 5.2 kg/m3. For the same molecule, the mass density (316.4 K, m1 = 0.1455) was 781.57 ± 5 kg/m3, the mass density (316.95 K, m1 = 0.0855) was 775.61 ± 2.7 kg/m3 and the mass density (316.95 K, m1 = 0.2668) was 787.26 ± 5.2 kg/m3. For the same molecule, the mass density (317 K, m1 = 0.0093) was 770.44 ± 0.56 kg/m3, the mass density (317.25 K, m1 = 0.2003) was 783.64 ± 4.2 kg/m3 and the mass density (318.7 K, m1 = 0.1455) was 779.18 ± 3.2 kg/m3.
